Assay results taken from patent publication US12642885B2, “Hemostatic and wound healing turmeric-polymer composite materials” (priority 2021, dated 2026).

Experiments:
[1] = system: blood clotting; assay: Effect of curcumin alone on blood clotting
Description: Turmeric powder is the dried powdered rhizomes of Curcuma longa of the ginger family. Turmeric powder comprises 60-70% carbohydrates, 6-13% water, 6-8% protein, 5-10% fat, 3-7% dietary minerals, 3-7% essential oils such as turmerone and germacrone, 2-7% dietary fiber, and 1-6% curcuminoids. (including curcumin). […] The turmeric powder may be passed through a 100 mesh (149 micron) sieve such that the resulting particles are smaller than 149 microns in diameter. Generally, turmeric powder is present in the suspension at a concentration between 0.1 g per mL and 2 g per ml. In one embodiment, the concentration is between 0.1 g per mL and 1 g per mL. In yet another embodiment, the concentration is between 0.1 g per mL and 0.5 g per mL.

[2] = system: most cancer cell lines; conditions: cited from earlier work
[3] = system: blood clotting; conditions: Kim et al., BMB Rep. 2012; cited from earlier work

In the case of `COc1cc(/C=C/C(=O)CC(=O)/C=C/c2ccc(O)c(OC)c2)ccc1O` [curcumin], the “promotion of blood clotting” value [1] is given as “not found to promote blood clotting”, the anti-cancer activity [2] is given as “moderate” and the IC50 ([2]; most cancer cell lines, peer reviewed literature) is given as 20 µM. The anticoagulant activity [3] was “well-known anticoagulant”.
